This passage reports Activity and CC50 results from ChEMBL document CHEMBL1151643, “The Identification of a Major Phytotoxic Component from Alternaria macrospora as -Dehydrocurvularin” (J Nat Prod, 1985).

What all share (assay type): organism-based
The test system of data set [1] is Gossypium hirsutum. The experiment in a line: Phytotoxicity against Gossypium hirsutum assessed as appearance of lesions at 10 ug applied to adaxial surface of leaf for 12 hrs measured after 16 hrs. The following applies: in vivo, topical_or_ocular.
The test system of data set [2] is Gossypium hirsutum. Kind of data set: Phytotoxicity against Gossypium hirsutum assessed as appearance of lesions at 0.5 ug applied to adaxial surface of leaf for 12 hrs measured after 4 days. Particulars: in vivo, topical_or_ocular.
A short description of data set [3]: Phytotoxicity against Cucumis sativus protoplast after 3 hrs by fluorescein diacetate staining. Particulars: Cucumis sativus protoplasts, read-out: LD50.

≈ marks a conversion by molar mass, not a printed value.

Turning to `CC1CCC/C=C/C(=O)c2c(O)cc(O)cc2CC(=O)O1` (centres undefined), the Activity result in data set [1] and in data set [2] was “Toxic” in each case. For the same compound, the CC50 at 3 h in data set [3] turned out to be 15 µg/mL (≈ 51.7 µM).

Take `CC1CCCCCC(=O)c2c(O)cc(O)cc2CC(=O)O1` (centres undefined) [CURVULARIN]: the CC50 at 3 h in data set [3] came to 21 µg/mL (≈ 71.8 µM).
